We go through five molecules from ChEMBL document CHEMBL3745604, “Synthesis, Biological Activities, and X-ray Crystal Structural Analysis of 25-Hydroxy-25(or 26)-adamantyl-17-[20(22),23-diynyl]-21-norvitamin D Compounds” (J Med Chem, 2015).

The target of data set [1] is T1, Vitamin D3 receptor (Homo sapiens, UniProt P11473).
T1 sequence (P11473 whole entry): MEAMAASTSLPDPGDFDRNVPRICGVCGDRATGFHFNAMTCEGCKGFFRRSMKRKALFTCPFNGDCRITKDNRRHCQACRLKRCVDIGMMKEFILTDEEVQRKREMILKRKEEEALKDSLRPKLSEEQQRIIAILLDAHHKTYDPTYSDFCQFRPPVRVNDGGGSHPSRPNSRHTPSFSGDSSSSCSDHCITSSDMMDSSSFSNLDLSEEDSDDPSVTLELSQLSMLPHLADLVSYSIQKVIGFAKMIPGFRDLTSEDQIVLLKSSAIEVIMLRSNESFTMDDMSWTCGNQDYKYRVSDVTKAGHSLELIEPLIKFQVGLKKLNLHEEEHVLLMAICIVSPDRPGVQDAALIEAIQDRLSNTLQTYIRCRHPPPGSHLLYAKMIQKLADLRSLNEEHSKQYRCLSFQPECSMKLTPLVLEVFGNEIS
Briefly: Displacement of [3H]-1,25(OH)2D3 from recombinant human VDR ligand binding domain.

Data set [2] addresses T2, Vitamin D3 receptor (Homo sapiens) (UniProt P11473).
T2 sequence (whole entry): T1 sequence (P11473 whole entry)
Briefly: Displacement of [3H]-1,25(OH)2D3 from recombinant human VDR ligand binding domain relative to 1,25(OH)2D3.

Data set [3] deals with T1, Vitamin D3 receptor. Put plainly: Agonist activity at VDR in human HEK293 cells assessed as transcriptional activity after 16 to 24 hrs by luciferase reporter gene assay. The class given is cell-based.
For data set [4], the target named is T2, Vitamin D3 receptor (Homo sapiens). Briefly: (§1) Agonist activity at VDR (unknown origin) expressed in HEK293 cells cotransfected with RXRalpha assessed as RXRalpha recruitment by two-hybrid assay. The class given is cell-based.
Data set [5] can be described thus: Drug uptake in human MG63 cells at 1 uM after 5 mins by HPLC analysis in presence of 10% FBS. The data set is classed as ADME, cell-based. Particulars: mg-63, 5 min.
Data set [6] in a line: Drug uptake in human MG63 cells at 1 uM after 10 mins by HPLC analysis in presence of 10% FBS. The data set is classed as ADME, cell-based. The following applies: mg-63, 10 min.
Data set [7] in a line: Metabolic stability in human MG63 assessed as compound metabolized at 1 uM after 24 hrs by HPLC analysis. The class given is ADME, MG-63. Particulars: MG63 cells, read-out: Drug metabolism.
Data set [8] has as its target T2, Vitamin D3 receptor (Homo sapiens). Briefly: Partial agonist activity at VDR in human HEK293 cells assessed as transcriptional activity after 16 to 24 hrs by luciferase reporter gene assay relative to 1,25(OH)2D3. The data set is classed as cell-based.
The target of data set [9] is T1, Vitamin D3 receptor. The data set is described as §1. The class given is cell-based.
The target in data set [10] is T1, Vitamin D3 receptor. Put plainly: Agonist activity at VDR (unknown origin) expressed in HEK293 cells cotransfected with SRC1 assessed as SRC1 recruitment by two-hybrid assay. The class given is cell-based.
The target in data set [11] is T1, Vitamin D3 receptor. Briefly: Agonist activity at VDR (unknown origin) expressed in HEK293 cells cotransfected with NCoR assessed as decrease in NCoR recruitment by two-hybrid assay. The data set is classed as cell-based.

The source made the active and inactive calls. The calls are words filed in the database; no cut-off is given here.

In the case of `C=C1[C@H](O)CC(=C/C=C2\CCC[C@]3(C)[C@@H](C#CC#C[C@@H](O)CC45CC6CC(CC(C6)C4)C5)CC[C@@H]23)C[C@H]1O`, the half-maximal inhibitory concentration (IC50) at Vitamin D3 receptor [1] worked out at 35 nM. Besides, in [2], the Activity amounted to 1%. Also, the EC50 at Vitamin D3 receptor [3] is 20 nM. Further, the result in [4] was Active.

In the case of `C=C1[C@H](O)CC(=C/C=C2\CCC[C@]3(C)[C@@H](C#CC#C[C@@H](O)C45CC6CC(CC(C6)C4)C5)CC[C@@H]23)C[C@H]1O`, the Drug uptake is 5.9% in data set [5] and 7.7% in [6]. In data set [7], the metabolised at 24 h, 1 µM came to 8%. Further, the IC50 at Vitamin D3 receptor [1] turned out to be 5 nM; on Vitamin D3 receptor [11] it was 0.09 nM. For the same molecule, the Activity in data set [2] was determined as 7%. Also, the 50% effective concentration (EC50) on Vitamin D3 receptor [3] worked out at 1.5 nM; at Vitamin D3 receptor [9], 0.7 nM; on Vitamin D3 receptor [10], 4.5 nM. For the same molecule, in [8], the Efficacy turned out to be 86%.

`C=C1[C@H](O)CC(=C/C=C2\CCC[C@]3(C)[C@@H](C#CC#C[C@H](O)CC45CC6CC(CC(C6)C4)C5)CC[C@@H]23)C[C@H]1O`: the half-inhibitory concentration (IC50) at Vitamin D3 receptor [1] stood at 35 nM. Further, the Activity in data set [2] is 1%. The 50% effective concentration (EC50) at Vitamin D3 receptor [3] amounted to 30 nM. Further, the Efficacy in data set [8] was determined as 59%. In addition, the outcome in data set [4] was Active.

As to `C=C1/C(=C\C=C2/CCC[C@]3(C)[C@@H]([C@H](C)CCCC(C)(C)O)CC[C@@H]23)C[C@@H](O)C[C@@H]1O` [CALCITRIOL], the Drug uptake in data set [5] is listed as 2.5%; in data set [6], 2.7%. For the same molecule, the metabolised at 24 h, 1 µM in data set [7] was 25%.

Consider `C=C1[C@H](O)CC(=C/C=C2\CCC[C@]3(C)[C@@H](C#CC#C[C@H](O)C45CC6CC(CC(C6)C4)C5)CC[C@@H]23)C[C@H]1O`, for which the concentration for half-maximal inhibition (IC50) on Vitamin D3 receptor [1] was found to be 12.5 nM. Also, in data set [2], the Activity was 3%. In addition, the EC50 at Vitamin D3 receptor [3] amounted to 7 nM. Also, the Efficacy in data set [8] was 41%.
